The values below come from patent US8129398B2 (priority 2008, dated 2012).

This test has as its target T1, HIV-integrase (Human immunodeficiency virus type 1 group M subtype B, UniProt P12497).
T1 construct: Recombinant integrase (0.26 ng) was incubated with the beads
Put plainly: HIV-Integrase Inhibition Activity (SPA bead integration assay with P33 labeled target DNA). The following applies: recombinant integrase, class symbols; read-out: in vitro activity. The class given is biochemical. On the procedure:
HIV-Integrase Inhibition Activity. To evaluate in-vitro activity against HIV-integrase, 5 pmole of biotin labeled substrate DNA was bound to 100 μg of Streptavidin coated PVT SPA beads (Amersham Pharmacia Biotech). Recombinant integrase (0.26 ng) was incubated with the beads for 90 min at 37° C. Unbound enzyme was removed by washing the complex followed by addition of inhibitors and 0.1 fmol of P33 labeled target DNA. The reaction was stopped by adding EDTA to a final concentration of 10 mM. Samples were counted in TopCountNXT (Packard) and the CPM was used as a measure of integration. The reaction condition was as described in A. Engelman and R. Craigie, J. Virol. 69, 5908-5911 (1995). The sequences of substrate and target DNA were described in Nucleic Acid Research 22, 1121-1122 (1994). Activity equal to A refers to a compound having IC50=<10 nM while B and C denote compounds having […] and IC50>100 nM respectively.
In the case of `CS(=O)(=O)NC12CCC(CC1)n1c2nc(C(=O)NCc2ccc(F)cc2)c(O)c1=O` [Example 13, 6,9-ethano-4H-pyrido[1,2-a]pyrimidine-2-carboxamide, N-[(4-fluorophenyl)methyl]-6,7,8,9-tetrahydro-3-hydroxy-9-[(methylsulfonyl)amino]-4-oxo-], the IC50 was under 10 nM. The figure for `CN(C)C(=O)C(=O)NC12CCC(CC1)Cn1c2nc(C(=O)NCc2cc(Br)c(F)cc2Br)c(O)c1=O` [Example 56, N′-(2-((2,5-Dibromo-4-fluorobenzyl)carbamoyl)-3-hydroxy-4-oxo-6,7,8,9-tetrahydro-7,10-ethanopyrimido[1,2-a]azepin-10(4H)-yl)-N,N-dimethylethanediamide] is under 10 nM. The figure for `NC12CCC(Cn3c1nc(C(=O)NCc1ccc(F)cc1)c(O)c3=O)OC2` (stereo not shown) [Example 220, 10-Amino-N-(4-fluorobenzyl)-3-hydroxy-4-oxo-4,6,7,8,9,10-hexahydro-7,10-(epoxymethano)pyrimido[1,2-a]azepine-2-carboxamide] is 10 to 100 nM; for `O=C(NC12CCC(CC1)Cn1c2nc(C(=O)NCc2ccc(F)cc2)c(O)c1=O)C(=O)N1CC(O)C1` [Example 65, N-(4-Fluorobenzyl)-3-hydroxy-10-(((3-hydroxy-1-azetidinyl) (oxo)acetyl)amino)-4-oxo-4,6,7,8,9,10-hexahydro-7,10-ethanopyrimido[1,2-a]azepine-2-carboxamide] it is under 10 nM; for `CN(C)C(=O)[C@@H]1CCCN1C(=O)C(=O)NC12CCC(CC1)Cn1c2nc(C(=O)NCc2ccc(F)cc2)c(O)c1=O` [Example 91, 10-((((2S)-2-(Dimethylcarbamoyl)-1-pyrrolidinyl) (oxo)acetyl)amino)-N-(4-fluorobenzyl)-3-hydroxy-4-oxo-4,6,7,8,9,10-hexahydro-7,11-ethanopyrimido[1,2-a]azepine-2-carboxamide] it is under 10 nM. For the compound `CN(C)C(=O)C(=O)NC12CCC(CC1)Cn1c2nc(C(=O)NCc2cccnc2)c(O)c1=O` [Example 364], the IC50 was in the range of 10 to 100 nM.

As to `O=C(NCc1ccc(F)cc1)c1nc2n(c(=O)c1O)CC1CCC2(NC(=O)C2CCOC2)CC1` (stereo not shown) [Example 238, 7,10-Ethanopyrimido[1,2-a]azepine-2-carboxamide, N-[(4-fluorophenyl)methyl]-4,6,7,8,9,10-hexahydro-3-hydroxy-4-oxo-10-[[(tetrahydro-3-furanyl)carbonyl]amino]-], the IC50 is under 10 nM.

Consider `CC(=O)N1[C@@H]2C[C@@H]2C[C@H]1C(=O)NC12CCC(CC1)Cn1c2nc(C(=O)NCc2ccc(F)cc2)c(O)c1=O` [Example 270, 7,10-Ethanopyrimido[1,2-a]azepine-2-carboxamide, 10-[[[(1R,3S,5R)-2-acetyl-2-azabicyclo[3.1.0]hex-3-yl]carbonyl]amino]-N-[(4-fluorophenyl)methyl]-4,6,7,8,9,10-hexahydro-3-hydroxy-4-oxo-], for which the IC50 is under 10 nM. Regarding `CN(C)C(=O)C(=O)NC12CCC(CC1)Cn1c2nc(C(=O)NCc2ccc(O)cc2)c(O)c1=O` [Example 390], the IC50 fell in the range of 10 to 100 nM. In the case of `Cc1nn(C)cc1CN(C)C(=O)C(=O)NC12CCC(CC1)Cn1c2nc(C(=O)NCc2ccc(F)cc2)c(O)c1=O` [Example 96, N-((1,3-Dimethyl-1H-pyrazol-4-yl)methyl)-N′-(2-((4-fluorobenzyl)carbamoyl)-3-hydroxy-4-oxo-6,7,8,9-tetrahydro-7,10-ethanopyrimido[1,2-a]azepin-10(4H)-yl)-N-methylethanediamide], the IC50 is under 10 nM.

With `CCCOC(=O)N1CCCC1C(=O)NC12CCC(CC1)Cn1c2nc(C(=O)NCc2ccc(F)cc2)c(O)c1=O` (stereo not shown) [Example 398], the IC50 is under 10 nM. The figure for `CN(C)C(=O)N1CCN(C(=O)C(=O)NC23CCC(CC2)Cn2c3nc(C(=O)NCc3ccc(F)cc3)c(O)c2=O)CC1` [Example 80, 10-(((4-(Dimethylcarbamoyl)-1-piperazinyl)(oxo)acetyl)amino)-N-(4-fluorobenzyl)-3-hydroxy-4-oxo-4,6,7,8,9,10-hexahydro-7,10-ethanopyrimido[1,2-a]azepine-2-carboxamide] is under 10 nM; for `O=C1CC[C@@H](C(=O)NC23CCC(CC2)Cn2c3nc(C(=O)NCc3ccc(F)cc3)c(O)c2=O)N1` [Example 46, N-(4-Fluorobenzyl)-3-hydroxy-4-oxo-10-((5-oxoprolyl)amino)-4,6,7,8,9,10-hexahydro-7,10-ethanopyrimido[1,2-a]azepine-2-carboxamide] it is under 10 nM. The figure for `CN(C)C(=O)CNC12CCC(CC1)Cn1c2nc(C(=O)NCc2ccc(F)cc2)c(O)c1=O` [Example 30, 10-((2-(Dimethylamino)-2-oxoethyl)amino)-N-(4-fluorobenzyl)-3-hydroxy-4-oxo-4,6,7,8,9,0-hexahydro-7,10-ethanopyrimido[1,2-a]azepine-2-carboxamide] is 10 to 100 nM; for `O=C(NCc1ccc(F)cc1)c1nc2n(c(=O)c1O)CC1CNCC2C1` (stereo not shown) [Example 7, 7,11-Methano-4H-pyrimido[1,2-a][1,5]diazocine-2-carboxamide, N-[(4-fluorophenyl)methyl]-6,7,8,9,10,11-hexahydro-3-hydroxy-4-oxo-] it is 10 to 100 nM; for `COc1cc(CNC(=O)c2nc3n(c(=O)c2O)CC2CCC3(N(C)C(=O)C(=O)N(C)C)CC2)ccc1F` [Example 160, N-(2-((4-Fluoro-3-methoxybenzyl)carbamoyl)-3-hydroxy-4-oxo-6,7,8,9-tetrahydro-7,10-ethanopyrimido[1,2-a]azepin-10(4H)-yl)-N,N′,N′-trimethylethanediamide] it is under 10 nM. In the case of `CN(C)C(=O)C(=O)N(CCO)C12CCC(CC1)Cn1c2nc(C(=O)NCc2ccc(F)cc2)c(O)c1=O` [Example 175, N-(2-((4-Fluorobenzyl)carbamoyl)-3-hydroxy-4-oxo-6,7,8,9-tetrahydro-7,10-ethanopyrimido[1,2-a]azepin-10(4H)-yl)-N-(2-hydroxyethyl)-N′,N′-dimethylethanediamide], the IC50 is under 10 nM. The figure for `CN(C)C(=O)C(=O)NC12CCC(CC1)Cn1c2nc(C(=O)NCC2CCCO2)c(O)c1=O` (stereo not shown) [Example 338] is over 100 nM; for `CN(C)C(=O)C(=O)NC12CCC(CC1)Cn1c2nc(C(=O)NCC(c2ccccc2)c2ccccc2)c(O)c1=O` [Example 340] it is over 100 nM.

For `O=C(NC12CCC(CC1)Cn1c2nc(C(=O)NCc2ccc(F)cc2)c(O)c1=O)C(=O)N1CCCCC1` [Example 59, N-(4-Fluorobenzyl)-3-hydroxy-4-oxo-10-((oxo(1-piperidinyl)acetyl)amino)-4,6,7,8,9,10-hexahydro-7,10-ethanopyrimido[1,2-a]azepine-2-carboxamide], the IC50 was under 10 nM. Consider `CO[C@H]1C[C@@H](C(=O)NC23CCC(CC2)Cn2c3nc(C(=O)NCc3ccc(F)cc3)c(O)c2=O)N(C(C)=O)C1` [Example 271, 7,10-Ethanopyrimido[1,2-a]azepine-2-carboxamide, 10-[[[(2S,4S)-1-acetyl-4-methoxy-2-pyrrolidinyl]carbonyl]amino]-N-[(4-fluorophenyl)methyl]-4,6,7,8,9,10-hexahydro-3-hydroxy-4-oxo-], for which the IC50 is under 10 nM. The figure for `O=C(NC12CCC(CC1)Cn1c2nc(C(=O)NCc2ccc(F)cc2)c(O)c1=O)C(=O)N1CCC(F)(F)CC1` [Example 85, 10-(((4,4-Difluoro-1-piperidinyl) (oxo)acetyl)amino)-N-(4-fluorobenzyl)-3-hydroxy-4-oxo-4,6,7,8,9,10-hexahydro-7,10-ethanopyrimido[1,2-a]azepine-2-carboxamide] is under 10 nM.
